For ten compounds, Activity and EC50 results are on record in ChEMBL document CHEMBL2040802, “Synthesis and pharmacological activity of N-(2,2-dimethyl-3,4-dihydro-2H-1-benzopyran-4-yl)-4H-1,2,4-benzothiadiazine-3-carboxamides 1,1-dioxides on rat uterus, rat aorta and rat pancreatic β-cells” (Eur J Med Chem, 2012).

The nature of test [1]: Inhibition of glucose-induced insulin secretion from Wistar rat pancreatic islet assessed as residual insulin release at 50 uM after 90 mins by radiometric analysis. Type of test: functional.
Test [2] can be described thus: Myorelaxant effect in oxytoxin-induced Wistar rat uterus smooth muscle assessed as residual contractile activity by continuous superfusion of oxytocin at 10 uM. It counts as functional.
Test [3] in a line: Myorelaxant effect in oxytoxin-induced Wistar rat uterus smooth muscle assessed as residual contractile activity by continuous superfusion of oxytocin at 100 uM. It counts as functional.
A short description of test [4]: Myorelaxant effect in oxytoxin-induced Wistar rat uterus smooth muscle assessed as residual contractile activity by continuous superfusion of oxytocin at 50 uM. It counts as functional.
A further test has as its system Aorta. Description: Myorelaxant activity in Wistar rat aorta rings assessed as inhibition of KCl-induced contraction. It counts as functional, tissue-based.

Take `CC1(C)Oc2ccc(C#N)cc2[C@@H](N2CCCC2=O)[C@@H]1O` (relative stereo) [LEVCROMAKALIM]: in test [1], the Activity amounted to 77.2%.

On to `CC(N/C(=N\C#N)Nc1ccncc1)C(C)(C)C` (centres undefined) [PINACIDIL ANHYDROUS], for which the Activity in test [2] is 58.1%; in test [3], 38.1%; in test [1] it was 92.1%; in test [4], 35.5%.

`CC1(C)CC(NC(=O)C2=NS(=O)(=O)c3ccccc3N2)c2cc(Br)ccc2O1` (centres undefined): the Activity in test [2] turned out to be 60.1%; in test [3] it was 19.9%; in test [1], 86.7%; in test [4] it was 44.3%. Also, the EC50 in the test with Aorta was greater than 30 µM.

With `CC1(C)CC(NC(=O)C2=NS(=O)(=O)c3cc(Cl)ccc3N2)c2cc([N+](=O)[O-])ccc2O1` (centres undefined), the Activity in test [2] is 97.9%; in test [3], 34.7%; in test [1], 77%; in test [4] it was 70.9%. Moreover, the EC50 in the test with Aorta was greater than 30 µM.

In the case of `CC1=Nc2ccc(Cl)cc2S(=O)(=O)N1` [DIAZOXIDE], the Activity in test [2] amounted to 93.8%; in test [3] it was 67.7%; in test [1] it was 28.8%; in test [4], 76.3%.

Take `CC1(C)CC(NC(=O)C2=NS(=O)(=O)c3ccccc3N2)c2cc([N+](=O)[O-])ccc2O1` (centres undefined): the Activity amounted to 96.8% in test [2], 34.7% in test [3], 77.9% in test [1] and 62.4% in test [4]. Moreover, the EC50 with Aorta is greater than 30 µM.

`Cc1ccc2c(c1)S(=O)(=O)N=C(C(=O)NC1CC(C)(C)Oc3ccc(Br)cc31)N2` (centres undefined): the Activity in test [2] was 76.8%; in test [3], 6.6%; in test [1], 91.4%; in test [4] it was 44.5%. For the same compound, the concentration giving a half-maximal response (EC50) with Aorta is greater than 30 µM.

`Cc1ccc2c(c1)S(=O)(=O)N=C(C(=O)NC1CC(C)(C)Oc3ccc([N+](=O)[O-])cc31)N2` (centres undefined): the Activity in test [2] was determined as 103.9%; in test [3], 90.6%; in test [1], 75.7%; in test [4], 94.9%. In the test with Aorta, the EC50 is greater than 30 µM.

`Cc1ccc2c(c1)S(=O)(=O)N=C(C(=O)NC1CC(C)(C)Oc3ccc(F)cc31)N2` (centres undefined): the Activity in test [2] was determined as 116.6%; in test [3] it was 124.4%; in test [1], 96.9%; in test [4], 132.4%. Also, the EC50 in the test on Aorta was greater than 30 µM.

`CC1(C)CC(NC(=O)C2=NS(=O)(=O)c3ccccc3N2)c2cc(F)ccc2O1` (centres undefined): the Activity in test [2] worked out at 123.7%; in test [3], 76.8%; in test [1] it was 77.3%; in test [4], 97.9%. For the same compound, the EC50 in the test with Aorta is greater than 30 µM.

As usually defined, the EC50 is the concentration at which the effect is half-maximal.
